Source: US10745408B2, “Biologically active taxane analogs and methods of treatment by oral administration” (Tapestry Pharmaceuticals, Inc., priority 2007, dated 2020)
“Also recorded” adds a separate entry of the source. Like-named read-outs stand apart in the source and are kept apart here.

What was measured:
[1] = test system: KBV (MDR+); assay: MTS proliferation assay, head/neck KBV (MDR+); assay type: cell-based
Experimental: (§1) MTS Proliferation Assay (Promega)
(§2) Day 1: Cells were plated in appropriate growth medium at 5×10^3 per well in 100 ul in 96 well tissue culture plates, Falcon, one for each drug to be tested. Col 1 was blank; it contained no cells, just medium. The plates were incubated overnight at 37° C., 5% CO2 to allow attachment.
(§3) Day 2: Added 120 ul growth medium in wells of 96-well “dilution plates” (one for each drug) and let sit in 37° C. incubator for about 1 hr.
(§4) Thawed DMSO drug stocks (usually at 10 mM). Each drug was diluted 6 ul into a tube with 3 ml growth medium, to 20 μM.
(§5) Aspirated medium from col 12 of a dilution plate; added 200-300 ul of 20 uM drug to wells of col 12. Made serial dilution down this 96-well plate: for a […] dilution pattern, moved 60 ul from col 12 to col 11, mixed 4-5 times (using 8 place multi-pipettor), moved 60 ul to col 10, etc. stopping at col 3.
(§6) Moved 100 ul of medium+drug from dilution plate to a cell plate, i.e. col 1 from drug plate (blank=no cells) to col 1 of cell plate, etc. up to col 12. Col 2 contained cells with no drug. […]
(§7) Day 4 or 5: Terminated the assay 48 to 72 hrs after drug addition. […] When the color turned dark in control wells (col 2), and was still light in col 12, the absorbance at 490 nm was read on a plate reader; the results were used to calculate IC50.

[2] = test system: HT29; assay: MTS proliferation assay, colon HT29; assay type: cell-based; details: Homo sapiens, HT-29
Experimental: as §1, §2, §3, §4, §5, §6, §7

[3] = Phase 1 Study S-(1)-01 plasma pharmacokinetics (weekly x3, 28-day cycle); assay type: in vivo, human; details: for half-life / AUC(0-t): human, plasma; for AUC(0-t): read-out: AUC0-24
Description: (§8) Both trials have enrolled patients with advanced solid tumors, non-Hodgkin's lymphoma or Hodgkin's lymphoma that have recurred or progressed following at least standard therapy; patients with malignancies for which there is no standard therapy; patients who are not candidates for standard therapy; or patients who have chosen not to pursue standard therapy. […] Study S-(1)-01 is currently being conducted in the United States. […] Study S-(1)-02 is currently being conducted in the United States and in Israel.
Plasma pharmacokinetics of S-(1) were assessed following the first dose of S-(1) in both studies. Plasma samples were analyzed for S-(1) using a validated LC/MS-MS method.

[4] = test system: patients with advanced neoplasms; assay: Phase 1 Study S-(1)-02 safety, tolerability and anti-neoplastic activity; assay type: in vivo, human
Description: as §8
Treatment cohorts were expanded to 6 pts in the face of dose-limiting toxicity (DLT); pts could remain on study until the development of progressive disease or an intolerable adverse event. DLT was defined as Gr 4 heme toxicity lasting 7 days; febrile neutropenia, Gr 3 thrombocytopenia with bleeding, Gr 3 elevation of transaminases lasting 7 days or any other Gr 3/4 toxicity other than nausea or vomiting.

[5] = Human tumor xenografts in nude mice (efficacy and MTD studies); assay type: in vivo; details: mouse, in vivo, po; nude mice, from efficacy and MTD studies; read-out: apparent oral bioavailability
[6] = test system: human tumor xenografts; assay: as above; assay type: in vivo
[7] = 14 mg/m^2 i.v., first dose, 50:50 Cremophor EL-P/ethanol formulation
[8] = 28 mg/m^2 i.v., first dose, 50:50 Cremophor EL-P/ethanol formulation
[9] = 56 mg/m^2 i.v., first dose, 50:50 Cremophor EL-P/ethanol formulation
[10] = 85 mg/m^2 i.v., first dose, 50:50 Cremophor EL-P/ethanol formulation
[11] = 127.5 mg/m^2 i.v., first dose, 50:50 Cremophor EL-P/ethanol formulation

## C=C[C@H]1O[C@H]2C[C@H]3OC[C@@]3(OC(C)=O)[C@H]3[C@H](OC(=O)c4ccccc4)[C@]4(C(C)(C)O)CC(OC(=O)[C@H](O)C(CC(C)C)NC(=O)OC(C)(C)C)C(C)=C4[C@H](OC(C)=O)[C@H](O1)[C@]23C (stereo partly drawn) [S-(1)]
[1]
  IC50: 553 nM
[2]
  IC50: 0.006 nM
[3]; [7]
  Cl: 35.5 ± 29.7 L/hr/m^2
  Vss: 23.2 ± 74.5 L/m^2
[3]; [8]
  Cl: 43.5 ± 14.5 L/hr/m^2
  Vss: 309 ± 161 L/m^2
[3]; [9]
  Cl: 28.6 ± 13.2 L/hr/m^2
  Vss: 216 ± 70 L/m^2
[3]; [10]
  Cl: 16.6 ± 9.26 L/hr/m^2
  Vss: 142 ± 75.6 L/m^2
[3]; [11]
  Cl: 30.2±11.9 L/hr/m^2
  Vss: 239 ± 116 L/m^2
  t1/2: 6.59 ± 2.60 h
[3]; intravenous, S-(1)-01 study, all dose groups, read-out: Plasma t1/2 values, range over dose groups
  half-life: 3.45 to 8.4 h
[3]; iv, 14 mg/m2, 14 mg/m^2 i.v., first dose, 50:50 Cremophor EL-P/ethanol formulation
  AUC(0-t): 457 ± 297 ng·h/mL
[3]; iv, 14 mg/m2, 14 mg/m^2 i.v., first dose, 50:50 Cremophor EL-P/ethanol formulation, read-out: t1/2 (converted)
  half-life: 8.4 ± 11.5 h
[3]; iv, 28 mg/m2, 28 mg/m^2 i.v., first dose, 50:50 Cremophor EL-P/ethanol formulation
  AUC(0-t): 682 ± 322 ng·h/mL
[3]; iv, 28 mg/m2, 28 mg/m^2 i.v., first dose, 50:50 Cremophor EL-P/ethanol formulation, read-out: t1/2 (converted)
  half-life: 3.45 ± 1.09 h
[3]; iv, 56 mg/m2, 56 mg/m^2 i.v., first dose, 50:50 Cremophor EL-P/ethanol formulation
  AUC(0-t): 2070 ± 888 ng·h/mL
[3]; iv, 56 mg/m2, 56 mg/m^2 i.v., first dose, 50:50 Cremophor EL-P/ethanol formulation, read-out: t1/2 (converted)
  half-life: 5.66 ± 3.63 h
[3]; iv, 85 mg/m2, 85 mg/m^2 i.v., first dose, 50:50 Cremophor EL-P/ethanol formulation
  AUC(0-t): 5970 ± 3900 ng·h/mL
[3]; iv, 85 mg/m2, 85 mg/m^2 i.v., first dose, 50:50 Cremophor EL-P/ethanol formulation, read-out: t1/2 (converted)
  half-life: 5.52 ± 5.26 h
[3]; iv, 127.5 mg/m2, 127.5 mg/m^2 i.v., first dose, 50:50 Cremophor EL-P/ethanol formulation
  AUC(0-t): 4460 ± 2140 ng·h/mL
[3]; iv, 127.5 mg/m2, 127.5 mg/m^2 i.v., first dose, 50:50 Cremophor EL-P/ethanol formulation, read-out: t1/2 (converted)
  half-life: 8.6 ± 1.3 h
[4]; 160 mg/m^2 every 21 days
  Dose limiting toxicity: no DLT was observed
[4]; 185 mg/m^2 every 21 days
  Dose limiting toxicity: Grade 3 sensory neuropathy; also recorded: Gr 3 peripheral sensory neuropathy
[4]; 1 pt with pancreatic cancer
  anti-neoplastic activity: confirmed response
[4]; 56-185 mg/m^2 every 21 days
  Drug related adverse events: mucositis, vomiting, diarrhea, neutropenia, thrombocytopenia, myalgias and peripheral neuropathy
[4]; every 21 days, heavily pre-treated patients
  dose that can be safely administered: 160 mg/m^2
[5]
  bioavailability: 40 to 80%
[6]; dosed either oral or iv
  efficacy in mouse xenografts: shows efficacy
[6]; including xenografts that expressed mdr-1 and were resistant to other taxanes
  antitumor activity against multiple human tumor xenografts: demonstrated antitumor activity; also recorded: suppressed the growth
